{
  "source": "patent US10624840B2",
  "about": "“Method for performing cosmetic surgical procedures using tumescent anesthesia and oral sedation” (priority 2017, dated 2020)",
  "origin": "cited, not measured here",
  "test_system": "patient",
  "settings": "oral",
  "data": [
    {"smiles": "O=C1Nc2ccc(Cl)cc2C(c2ccccc2Cl)=NC1O", "note": "(stereo not shown) [Lorazepam, lorazepam]", "values": [
      {"measurement": "duration of lasting effects on a patient", "result": "10 to 20", "unit": "h"}
    ]}
  ]
}
